# What was measured:
# FsaA A129S = biological target: T1, FsaA A129S (Escherichia coli, UniProt P78055, A129S); assay: Impact of AMP concentration on fructose-6-phosphate aldolase activity of FsaA A129S; format: biochemical, E. coli; conditions: AMP several concentrations; 200 mM DHA, 3 mM D,L-G3P, 0.4 mg/ml FsaA A129S, 30° C., NADPH formation at 340 nm; FIG. 2
# T1 construct: made in house; host or cells: E. coli BL21(DE3), ASKA collection plasmid
# Experimental: (§1) A series of tests was conducted in order to determine if AMP has an inhibitory effect on the enzymatic activity of fructose-6-phosphate aldolase and/or fructose bisphosphatase. […] Chem Cat Chem, Wiley, 7:1871-1879 (2015).
# fructose bisphosphatase = fructose bisphosphatase (Escherichia coli, UniProt P0A993); assay: Impact of AMP concentration on fructose bisphosphatase activity; format: biochemical; conditions: AMP several concentrations; 1 mM F1,6bisP, 0.2 mg/ml FBP enzyme, 30° C., NADPH formation at 340 nm; FIG. 1
# Experimental: as §1
# T1 sequence (P78055 whole entry A129S): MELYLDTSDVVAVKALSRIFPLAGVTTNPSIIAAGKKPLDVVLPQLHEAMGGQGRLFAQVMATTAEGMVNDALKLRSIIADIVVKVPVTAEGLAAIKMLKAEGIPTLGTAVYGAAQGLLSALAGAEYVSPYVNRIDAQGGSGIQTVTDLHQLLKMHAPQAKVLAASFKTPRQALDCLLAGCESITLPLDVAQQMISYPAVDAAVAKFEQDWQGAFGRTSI
# fructose bisphosphatase, sequence (P0A993 whole entry): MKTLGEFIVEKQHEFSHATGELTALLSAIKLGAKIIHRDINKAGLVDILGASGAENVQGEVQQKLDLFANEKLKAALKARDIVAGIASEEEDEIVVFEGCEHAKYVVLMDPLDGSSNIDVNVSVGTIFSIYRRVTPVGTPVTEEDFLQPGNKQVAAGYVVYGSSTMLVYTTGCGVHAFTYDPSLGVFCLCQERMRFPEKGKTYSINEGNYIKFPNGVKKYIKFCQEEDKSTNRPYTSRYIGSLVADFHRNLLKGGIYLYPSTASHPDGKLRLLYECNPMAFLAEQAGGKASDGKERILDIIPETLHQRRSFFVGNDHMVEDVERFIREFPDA
compound,measurement,setting,value
Nc1ncnc2c1ncn2[C@@H]1O[C@H](COP(=O)(O)O)[C@@H](O)[C@H]1O [AMP],inhibitory effect of AMP on fructose-6-phosphate aldolase activity,FsaA A129S,No inhibitory effect
same,impact of AMP on fructose bisphosphatase activity,fructose bisphosphatase,strong inhibitory impact
